{"source": "patent US20030170229A1", "about": "“Vaccine” (SmithKline Beecham Biologicals s.a., priority 1999, published 2003)", "key": {"Peptide P11": {"test_system": "Peptide P11", "assay": "Anti-P11 ELISA on sera of mice immunised with P11-BSA", "format": "in vivo", "conditions": "P11 coupled to BSA, 25 μg in SBAS2 IM, 8 female BALB/c mice, days 0, 14, 28", "description": "FIG. 5, Antibody response anti-P11. Peptide P11 is coated at 1 μg/ml in carbonate buffer at +4° C. overnight. After saturation of plates, two-fold serial dilution of sera are added and incubated for 1 h at 37° C. Bound IgG is detected with a biotinylated anti-mouse Ab followed by streptavidin-POD and TMB substrate. Time points measured A. days 14 post vaccination 1, and day 14 post v2; B, Day 14 post v3.\n(§1) The anti-peptide and anti-carrier immune responses were investigated using an ELISA technique outlined below. Microtiterplates (Nunc) are coated with the specific antigen in PBS (4° overnight) with either: Streptavidin at 2 μg/ml (followed by incubation with biotinylated peptide (1 μM) for 1 hour at 37° C.), Wash 3× PBS-Tween 20 0.1%. Saturate plates with PBS-BSA 1%-Tween 20 0.1% (Sat buffer) for 1 hr at 37°. Add 1° antibody=sera in two-step dilution (in Sat buffer), incubate 1 hr 30 minutes at 37°. Wash 3×. Add 2° anti-mouse Ig (or anti-mouse isotype specific monoclonal antibody) coupled to HRP. Incubate 1 hr at 37°. Wash 5×. Reveal with TMB (BioRad) for 10 minutes at room temperature in the dark. Block reaction with 0.4N H2SO4.\n25 μg of conjugate formulated in SBAS2 was injected IM into 8 female BALB/c mice at days 0, 14 and 28. […] Anti-peptide and anti-IgE antibodies raised by vaccination were measured by ELISA, as described in Example 1."}, "human IgE": {"test_system": "human IgE", "assay": "IgE plate bound ELISA: anti-human IgE reactivity in serum of immunised mice", "format": "in vivo, mouse"}, "P14 peptide": {"test_system": "P14 peptide", "assay": "Anti-peptide ELISA on sera of mice immunised with P14 conjugates", "format": "in vivo, BalbC mice", "conditions": "mice vaccinated with P14 conjugate", "description": "as §1\nThe conjugates comprising the mimotope P14 (25 μg protein/dose), described in example 1, were administered into groups of 10 BalbC mice, adjuvanted with and oil in water emulsion containing QS21 and 3D-MPL described in WO 95/17210. Boosting was be performed on days 14, 24 and 72, sera was harvested 14 days after each immunisation. The immune responses anti-peptide and anti-plate bound IgE was followed using ELISA methods described in Example 1. The antiserum was then tested for anaphylactogenicity and functional activity in the inhibition of histamine release from human allergic basophils (methods as described in example 1)."}, "allergic human basophils": {"test_system": "allergic human basophils", "assay": "Human basophil assay, blocking assay (inhibition of allergen-triggered histamine release)", "format": "cell-based", "conditions": "mouse antiserum; allergic human basophils triggered with allergen", "text": "Samples of cells were lysed by 2× freeze/thawing to assay total histamine contained in the cells.\nThe degree of inhibition of histamine release can be calculated using the formula: […]\n(histamine release from antigen stimulated cells*)\nValues corrected for spontaneous release."}}, "note": "“Also recorded” adds a separate entry of the source."}
{"sequence": "CRASGKPVNHSTRKEEKQRNGLL (Human peptide sequence) [Peptide P11]", "values": [{"measurement": "IgG anti-P11 response", "setting": "Peptide P11", "result": "detected already after one injection, but increased further after the second and third injection"}, {"measurement": "anti-IgE response", "setting": "human IgE; as expressed in mAb005 equivalents, all mice, after a third injection of P11 coupled to BSA", "result": "28 to 244", "unit": "µg/mL"}]}
{"sequence": "APEWPGSRDKRTC (Human peptide sequence) [Peptide P14]", "values": [{"measurement": "induction of anti-P14 immune response", "setting": "P14 peptide", "result": "capable of raising high titres"}, {"measurement": "inhibition of histamine release by antiserum/antibodies raised by vaccination", "setting": "allergic human basophils", "result": "potent in the inhibition of histamine release; also recorded: inhibited histamine release"}, {"measurement": "induction of anti-IgE immune response", "setting": "human IgE; mice vaccinated with P14 conjugate", "result": "capable of raising high titres"}]}
